Results from the NIST ThermoML archive (doi:10.1016/j.jct.2013.11.027).
Numbers after ± are expanded uncertainties.

Experiments:
[1] = refractive index (Na D-line) (dimensionless); xn = mol fraction of the nth substance listed; details: 101 kPa, Liquid, Standard Abbe refractometry
[2] = xn = mol fraction of the nth substance listed; details: 101 kPa, Liquid; for speed of sound: Sing-around technique in a fixed-path interferometer; for mass density: Vibrating tube method

CCCCCCn1cc[n+](C)c1.F[B-](F)(F)F [1-hexyl-3-methylimidazolium tetrafluoroborate] + C1CCOC1
Details | mass density, 298.15 K [kg/m3] | mass density, 308.15 K [kg/m3] | mass density, 318.15 K [kg/m3] | refractive index, 298.15 K | refractive index, 308.15 K | refractive index, 318.15 K | speed of sound, 298.15 K [m/s] | speed of sound, 308.15 K [m/s] | speed of sound, 318.15 K [m/s]
[1], x1 = 0.0989 | – | – | – | 1.41416 ± 0.00039 | 1.41006 ± 0.00039 | 1.40595 ± 0.0004 | – | – | –
[1], x1 = 0.2022 | – | – | – | 1.42016 ± 0.0004 | 1.41657 ± 0.0004 | 1.41275 ± 0.00041 | – | – | –
[1], x1 = 0.3014 | – | – | – | 1.42373 ± 0.00041 | 1.42043 ± 0.00041 | 1.4171 ± 0.00042 | – | – | –
[1], x1 = 0.3985 | – | – | – | 1.42607 ± 0.00043 | 1.42284 ± 0.00043 | 1.41964 ± 0.00043 | – | – | –
[1], x1 = 0.5109 | – | – | – | 1.4279 ± 0.00044 | 1.42491 ± 0.00045 | 1.42175 ± 0.00045 | – | – | –
[1], x1 = 0.5974 | – | – | – | 1.42888 ± 0.00046 | 1.42609 ± 0.00046 | 1.42305 ± 0.00046 | – | – | –
[1], x1 = 0.6974 | – | – | – | 1.42974 ± 0.00048 | 1.427 ± 0.00048 | 1.42418 ± 0.00048 | – | – | –
[1], x1 = 0.8045 | – | – | – | 1.4305 ± 0.00049 | 1.42774 ± 0.00049 | 1.42511 ± 0.00049 | – | – | –
[1], x1 = 0.8865 | – | – | – | 1.43095 ± 0.00051 | 1.42822 ± 0.00051 | 1.42548 ± 0.00051 | – | – | –
[1], x1 = 1 | – | – | – | 1.43167 ± 0.00053 | 1.4289 ± 0.00053 | 1.42612 ± 0.00053 | – | – | –
[2], x1 = 0.0989 | 954.559 ± 0.22 | 945.509 ± 0.23 | 936.105 ± 0.23 | – | – | – | 1306.3 ± 1.4 | 1263.5 ± 1.4 | 1221.2 ± 1.4
[2], x1 = 0.2022 | 1005.23 ± 0.24 | 996.175 ± 0.24 | 987.171 ± 0.24 | – | – | – | 1346.4 ± 1.5 | 1308 ± 1.5 | 1270.1 ± 1.5
[2], x1 = 0.3014 | 1040.84 ± 0.31 | 1032.56 ± 0.3 | 1023.55 ± 0.29 | – | – | – | 1379.6 ± 1.6 | 1344.7 ± 1.6 | 1310.1 ± 1.6
[2], x1 = 0.3985 | 1066.08 ± 0.39 | 1058.03 ± 0.39 | 1049.53 ± 0.38 | – | – | – | 1406.7 ± 1.7 | 1374.4 ± 1.7 | 1342.6 ± 1.7
[2], x1 = 0.5109 | 1089.28 ± 0.51 | 1081.23 ± 0.5 | 1072.72 ± 0.49 | – | – | – | 1431.3 ± 1.8 | 1401.3 ± 1.8 | 1371.8 ± 1.8
[2], x1 = 0.5974 | 1103.2 ± 0.6 | 1095.15 ± 0.59 | 1087.75 ± 0.58 | – | – | – | 1447 ± 1.9 | 1418.5 ± 1.9 | 1390.3 ± 1.9
[2], x1 = 0.6974 | 1116.29 ± 0.72 | 1109.24 ± 0.71 | 1102.04 ± 0.7 | – | – | – | 1462.8 ± 2 | 1435.6 ± 2 | 1408.7 ± 2
[2], x1 = 0.8045 | 1128.3 ± 0.86 | 1121.25 ± 0.85 | 1114.44 ± 0.84 | – | – | – | 1477.3 ± 2.1 | 1451.1 ± 2.1 | 1425.4 ± 2.1
[2], x1 = 0.8865 | 1135.58 ± 0.97 | 1128.53 ± 0.96 | 1121.52 ± 0.95 | – | – | – | 1486.9 ± 2.2 | 1461.3 ± 2.2 | 1436.2 ± 2.2
[2], x1 = 1 | 1145.11 ± 1.1 | 1137.71 ± 1.1 | 1130.49 ± 1.1 | – | – | – | 1496.7 ± 2.3 | 1472 ± 2.3 | 1447.7 ± 2.3

CCCCCCn1cc[n+](C)c1.F[B-](F)(F)F [1-hexyl-3-methylimidazolium tetrafluoroborate] + C1COCCO1
Details | mass density, 298.15 K [kg/m3] | mass density, 308.15 K [kg/m3] | mass density, 318.15 K [kg/m3] | refractive index, 298.15 K | refractive index, 308.15 K | refractive index, 318.15 K | speed of sound, 298.15 K [m/s] | speed of sound, 308.15 K [m/s] | speed of sound, 318.15 K [m/s]
[1], x1 = 0.0956 | – | – | – | 1.4241 ± 0.00037 | 1.42009 ± 0.00037 | 1.41587 ± 0.00038 | – | – | –
[1], x1 = 0.2039 | – | – | – | 1.42717 ± 0.00038 | 1.42329 ± 0.00038 | 1.41958 ± 0.00038 | – | – | –
[1], x1 = 0.2945 | – | – | – | 1.42874 ± 0.00039 | 1.42525 ± 0.00039 | 1.42174 ± 0.00039 | – | – | –
[1], x1 = 0.368 | – | – | – | 1.42944 ± 0.0004 | 1.42625 ± 0.0004 | 1.42294 ± 0.0004 | – | – | –
[1], x1 = 0.4876 | – | – | – | 1.43034 ± 0.00042 | 1.42727 ± 0.00042 | 1.42429 ± 0.00042 | – | – | –
[1], x1 = 0.5831 | – | – | – | 1.43075 ± 0.00044 | 1.42802 ± 0.00044 | 1.42519 ± 0.00044 | – | – | –
[1], x1 = 0.6816 | – | – | – | 1.43106 ± 0.00046 | 1.42839 ± 0.00046 | 1.42546 ± 0.00046 | – | – | –
[1], x1 = 0.7695 | – | – | – | 1.43149 ± 0.00048 | 1.42861 ± 0.00048 | 1.42574 ± 0.00048 | – | – | –
[1], x1 = 0.8594 | – | – | – | 1.43152 ± 0.0005 | 1.42868 ± 0.0005 | 1.42604 ± 0.0005 | – | – | –
[1], x1 = 1 | – | – | – | 1.43167 ± 0.00053 | 1.4289 ± 0.00053 | 1.42612 ± 0.00053 | – | – | –
[2], x1 = 0.0956 | 1060.24 ± 0.16 | 1050.11 ± 0.16 | 1040.21 ± 0.16 | – | – | – | 1373.3 ± 1.3 | 1332.3 ± 1.3 | 1291 ± 1.3
[2], x1 = 0.2039 | 1084.24 ± 0.2 | 1074.91 ± 0.2 | 1065.52 ± 0.19 | – | – | – | 1403 ± 1.4 | 1364.1 ± 1.4 | 1324.8 ± 1.4
[2], x1 = 0.2945 | 1098.98 ± 0.25 | 1089.94 ± 0.25 | 1081.15 ± 0.24 | – | – | – | 1422 ± 1.5 | 1384.1 ± 1.5 | 1346.8 ± 1.5
[2], x1 = 0.368 | 1107.75 ± 0.31 | 1099.02 ± 0.3 | 1090.42 ± 0.3 | – | – | – | 1434 ± 1.6 | 1398.1 ± 1.6 | 1362.7 ± 1.5
[2], x1 = 0.4876 | 1119.03 ± 0.42 | 1110.69 ± 0.42 | 1102.5 ± 0.41 | – | – | – | 1450.5 ± 1.7 | 1417.6 ± 1.7 | 1384.3 ± 1.7
[2], x1 = 0.5831 | 1125.92 ± 0.53 | 1118.09 ± 0.52 | 1110.2 ± 0.51 | – | – | – | 1461 ± 1.8 | 1430.1 ± 1.8 | 1398.7 ± 1.8
[2], x1 = 0.6816 | 1131.92 ± 0.65 | 1124.09 ± 0.64 | 1116.5 ± 0.63 | – | – | – | 1470.5 ± 1.9 | 1441.5 ± 1.9 | 1412.2 ± 1.9
[2], x1 = 0.7695 | 1136.19 ± 0.77 | 1128.65 ± 0.76 | 1121.26 ± 0.75 | – | – | – | 1478.1 ± 2 | 1450.5 ± 2 | 1423.2 ± 2
[2], x1 = 0.8594 | 1140.02 ± 0.91 | 1132.69 ± 0.89 | 1125.9 ± 0.88 | – | – | – | 1485.9 ± 2.1 | 1459.7 ± 2.1 | 1433.3 ± 2.1
[2], x1 = 1 | 1145.11 ± 1.1 | 1137.71 ± 1.1 | 1130.49 ± 1.1 | – | – | – | 1496.7 ± 2.3 | 1472 ± 2.3 | 1447.7 ± 2.3
